Data: patent US20080051429A1, “USE OF 4-AMINO-PIPERIDINES FOR TREATING SLEEP DISORDERS” (priority 2006, published 2008)
Where a name gives a salt, the structure may show the parent alone. Read-outs that look alike come from different tables or passages of the source.

Biological target: T1, 5-HT2A receptor (Homo sapiens, UniProt P28223)
T1 construct: expressed in transfected cells; host or cells: NIH3T3 cells, pSI expression vector
Assay: R-SAT functional receptor assay
Assay type: cell-based
Settings: for Emax: 120 h
Protocol: The functional receptor assay, Receptor Selection and Amplification Technology (R-SAT), was used (with minor modifications from that previously described U.S. Pat. No. 5,707,798) to screen compounds for efficacy at the 5-HT2A receptor. Briefly, NIH3T3 cells were grown in 96 well tissue culture plates to 70-80% confluence. Cells were transfected for 12-16 hours with plasmid DNAs using superfect (Qiagen Inc.) as per manufacture's protocols. R-SAT's were generally performed with 50 ng/well of receptor and 20 ng/well of Beta-galactosidase plasmid DNA. All receptor and G-protein constructs used were in the pSI mammalian expression vector (Promega Inc) as described in U.S. Pat. No. 5,707,798. The 5HT2A receptor gene was amplified by nested PCR from brain cDNA using the oligodeoxynucleotides based on the published sequence (see Saltzman et. al. Biochem. Biophys. Res. Comm. 181:1469-78 (1991)). Large-scale transfections, cells were transfected for 12-16 hours, then trypsinized and frozen in DMSO. Frozen cells were later thawed, plated at 10,000-40,000 cells per well of a 96 well plate that contained drug. With both methods, cells were then grown in a humidified atmosphere with 5% ambient CO2 for five days. Media was then removed from the plates and marker gene activity was measured by the addition of the beta-galactosidase substrate ONPG (in PBS with 5% NP-40). The resulting colorimetric reaction was measured in a spectrophotometric plate reader (Titertek Inc.)at […]. All data were analyzed using the computer program XLFit (IDBSm). Efficacy is the percent maximal repression compared to repression by a control compound (ritanserin in the case of 5HT2A). pIC50 is the negative of the log(IC50), where IC50 is the calculated concentration in Molar that produces 50% maximal repression.
Briefly, the 5-HT2A receptor, and the alpha subunit of the guanine nucleotide binding protein Gq were transiently transfected into NIH3T3 cells and assayed using the functional receptor assay, Receptor Selection and Amplification Technology (R-SAT) essentially as disclosed in U.S. Pat. No. 5,707,798. Each compound was screened at seven serially diluted concentrations in triplicate. Data were analyzed using least squares fit analysis with GraphPad Prism (San Diego, Calif.), and are reported normalized to percent response.
R-SAT assays (as described in Example 42) were carried out with cells transfected with receptors (listed below) to determine the receptor selectivity profile for compound 26HCH16D. 5HT2A inverse agonist data (IC50 nM; % efficacy) were derived from detailed dose response curves (7 points in triplicate).
(§1) The functional receptor assay, Receptor Selection and Amplification Technology (R-SAT), was used (with minor modifications from that previously described U.S. Pat. No. 5,707,798) to screen compounds for efficacy at the 5-HT2A receptor. The RSAT assay was conducted as described herein.
as §1, with “5,707,798, which is incorporated herein by reference in its entirety)” for “5,707,798)”

[1] = compared to ritanserin, read-out: 5HT2A % inhibition
[2] = pIC50 (average), inverse agonist
[3] = percent maximal repression compared to ritanserin
[4] = read-out: Percent Efficacy, compared to ritanserin
[5] = Table 3, read-out: pIC50 (converted)
[6] = inverse agonist, read-out: pIC50 (average) (converted)
[7] = Table 6, read-out: 5HT2A pIC50 (converted)

T1 sequence (P28223 whole entry): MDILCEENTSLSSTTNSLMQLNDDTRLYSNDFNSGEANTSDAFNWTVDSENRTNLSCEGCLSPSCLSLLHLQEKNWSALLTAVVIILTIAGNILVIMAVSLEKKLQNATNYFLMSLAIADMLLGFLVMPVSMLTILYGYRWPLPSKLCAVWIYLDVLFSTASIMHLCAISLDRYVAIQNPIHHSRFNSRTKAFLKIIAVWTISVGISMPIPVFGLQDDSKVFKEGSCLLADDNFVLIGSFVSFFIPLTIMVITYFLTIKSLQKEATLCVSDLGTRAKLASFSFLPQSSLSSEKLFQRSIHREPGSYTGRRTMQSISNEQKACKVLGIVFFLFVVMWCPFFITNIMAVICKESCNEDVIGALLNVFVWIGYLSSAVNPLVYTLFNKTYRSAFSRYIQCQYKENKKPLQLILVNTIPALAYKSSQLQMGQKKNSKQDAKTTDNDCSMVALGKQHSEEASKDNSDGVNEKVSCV

CC(C)COc1ccc(CN2C(=O)OC3(CCN(C)CC3)[C@@H]2Cc2ccc(F)cc2)cc1 (single isomer, unassigned) [Example 78NLS59, 4-(4-fluorobenzyl)-3-(4-isobutoxybenzyl)-8-methyl-1-oxa-3,8-diaza-spiro[4.5]decan-2-one, hydrochloride]
Emax (read-out: 5HT2A % inhibition, compared to ritanserin): 98% | enantiomer activity at the 5-HT2A receptor (in words): eutomer

CC(C)COc1ccc(CN2C(=O)OC3(CCN(C)CC3)C2Cc2ccc(F)cc2)cc1 (single isomer, unassigned) [Example 78NLS62, 4-(4-fluorobenzyl)-3-(4-isobutoxybenzyl)-8-methyl-1-oxa-3,8-diaza-spiro[4.5]decan-2-one, hydrochloride]
Emax [1]: 89%

COc1ccc(CC(=O)N(Cc2ccc(C)cc2)C2CCN(CC3CCCCC3)CC2)cc1 [Example 6HCH79-6, N-(1-(Cyclohexylmethyl)piperidin-4-yl)-N-((4-methylphenyl)methyl)-4-methoxy phenylacetamide]
Percent Efficacy: 83%

COc1ccc(CC(=O)N(Cc2ccc(C)cc2)C2CCN(Cc3ccccc3)CC2)cc1 [Example 26HCH17, N-((4-Methylphenyl)methyl)-N-(1-(phenylmethyl)piperidin-4-yl)-4-methoxyphenylacetamide hydrochloride]
Emax (read-out: Percent Efficacy): 94% | IC50 (pIC50, Table 3): 5.01 nM

COc1ccc(CC(=O)N(Cc2ccc(C)cc2)C2CCN(Cc3ccccc3)C2)cc1 (stereo not drawn) [Example 26HCH52, N-((4-Methylphenyl)methyl)-N-(1-(phenylmethyl)pyrrolidin-3-yl)-4-methoxyphenylacetamide]
IC50 [2]: 49 nM | Efficacy (average) [3]: 98

Cc1ccc(CN(C(=O)NCc2ccccc2)C2CCNCC2)cc1 [Example 26HCH65, N-((4-Methylphenyl)methyl)-N-(piperidin-4-yl)-N′-phenylmethylcarbamide]
Emax [4]: 103% | IC50 [5]: 6.31 nM

Cc1ccc(CN(C(=O)NCc2ccccc2)C2CCN(Cc3ccccc3Br)CC2)cc1 [Example 26HCH66-03, N-(1-((2-Bromophenyl)methyl)piperidin-4-yl)-N-((4-methylphenyl)methyl)-N′-phenylmethylcarbamide]
IC50 [2]: 38 nM | Efficacy (average) [3]: 76

CCc1ccc(CN2CCC(N(Cc3ccc(C)cc3)C(=O)NCc3ccccc3)CC2)s1 [Example 26HCH66-05, N-(1-((5-Ethylthien-2-yl)methyl)piperidin-4-yl)-N-((4-methylphenyl)methyl)-N′-phenylmethylcarbamide]
Emax (read-out: Percent Efficacy): 126% | IC50 [2]: 28.2 nM | IC50 (pIC50, Table 3): 7.94 nM | Efficacy (average) [3]: 109

COc1ccc(CC(=O)N(Cc2ccc(C)cc2)C2CCNCC2)cc1 [Example 26HCH71B, N-((4-Methylphenyl)methyl)-N-(piperidin-4-yl)-4-methoxyphenylacetamide]
Emax [4]: 124% | IC50 [5]: 12.6 nM

COc1ccc(CC(=O)N(Cc2ccc(C)cc2)C2CCN(CCC(C)(C)C)CC2)cc1 [Example 26HCH79-5, N-(1-(3,3-Dimethylbutyl)piperidin-4-yl)-N-((4-methylphenyl)methyl)-4-methoxyphenylacetamide]
Emax [4]: 94% | IC50 [5]: 6.31 nM

COc1ccc(CC(=O)N(Cc2ccc(C)cc2)C2CCN(Cc3ccccc3O)CC2)cc1 [Example 26HCH79-10, N-(1-((2-Hydroxyphenyl)methyl)piperidin-4-yl)-N-((4-methylphenyl)methyl)-4-methoxyphenylacetamide]
Emax (read-out: Percent Efficacy): 102% | IC50 (pIC50, Table 3): 15.8 nM

COc1ccc(CC(=O)N(Cc2ccc(F)cc2)C2CCNCC2)cc1 [Example 26HCH80-7, N-((4-Fluorophenyl)methyl)-N-(piperidin-4-yl)-4-methoxyphenylacetamide]
Efficacy (average): 87 | IC50 [6]: 20 nM

COc1ccc(CC(=O)N(Cc2cccc(Br)c2)C2CCNCC2)cc1 [Example 26HCH80-10, N-((3-Bromophenyl)methyl)-N-(piperidin-4-yl)-4-methoxyphenylacetamide]
Efficacy (average): 91 | IC50 [6]: 61.7 nM

CC(C)COc1ccc(CN2C(=O)OC3(CCN(CC4CC4)CC3)C2Cc2ccc(F)cc2)cc1 (stereo not drawn) [Example 38-PH16-HCl, 8-Cyclopropylmethyl-4-(4-fluorobenzyl)-3-(4-isobutoxybenzyl)-1-oxa-3,8-diaza-spiro[4.5]decan-2-one, hydrochloride]
Emax [1]: 95% | IC50 [7]: 7.94 nM

CC(C)COc1ccc(CN2C(=O)OC3(CCN(CCN4CCNC4=O)CC3)C2Cc2ccc(F)cc2)cc1 (stereo not drawn) [Example 38-PH17-HCl, 4-(4-Fluorobenzyl)-3-(4-isobutoxybenzyl)-8-[2-(2-oxo-imidazolidin-1-yl)-ethyl]-1-oxa-3,8-diaza-spiro[4.5]decan-2-one, hydrochloride]
Emax [1]: 84% | IC50 [7]: 1.58 nM

CCN1CCC2(CC1)OC(=O)N(Cc1ccc(OCC(C)C)cc1)C2Cc1ccc(F)cc1 (stereo not drawn) [Example 38-PH20, 4-(4-Fluorobenzyl)-3-(4-isobutoxybenzyl)-8-ethyl-1-oxa-3,8-diaza-spiro[4.5]decan-2-one, hydrochloride]
Emax [1]: 100% | IC50 [7]: 0.501 nM

COc1ccc(CC(=O)N(Cc2ccc(C)cc2)C2CCN(CC3CCCCC3)CC2)cc1 [Example 42ELH45, 2-(4-Methoxyphenyl)-N-(4-methylbenzyl)-N-(1-cyclohexylmethylpiperidin-4-yl)acetamide]
Percent Efficacy: 108%

COc1ccc(CC(=O)N(Cc2ccc(C)cc2)C2CCN(C3CCCC3)CC2)cc1 [Example 42ELH75, 2-(4-Methoxyphenyl)-N-(4-methylbenzyl)-N-(1-cyclopentylpiperidin-4-yl)acetamide]
Emax [4]: 109% | IC50 [5]: 5.01 nM

COc1ccc(CC(=O)N(Cc2ccc(C)cc2)C2CCN(C(C)C)CC2)cc1 [Example 42ELH79, 2-(4-Methoxyphenyl)-N-(4-methylbenzyl)-N-(1-isopropylpiperidin-4-yl)acetamide]
Emax [4]: 110% | IC50 [5]: 3.16 nM

CCN1CCC(N(Cc2ccc(C)cc2)C(=O)Cc2ccc(OC)cc2)CC1 [Example 42ELH80, 2-(4-Methoxyphenyl)-N-(4-methylbenzyl)-N-(1-ethylpiperidin-4-yl)acetamide]
Emax [4]: 122% | IC50 [5]: 3.16 nM

CCN1CCC(N(Cc2ccc(Cl)cc2)C(=O)Cc2ccc(OC)cc2)CC1 [Example 42ELH85, 2-(4-Methoxyphenyl)-N-(4-chlorbenzyl)-N-(1-ethylpiperidin-4-yl)acetamide]
Percent Efficacy (compared to ritanserin): 118%

COc1ccc(CC(=O)N(Cc2ccc(Cl)cc2)C2CCN(C3CCCC3)CC2)cc1 [Example 42ELH91, 2-(4-Methoxyphenyl)-N-(4-chlorbenzyl)-N-(1-cyclopentylpiperidin-4-yl)acetamide]
Percent Efficacy (compared to ritanserin): 108%

Cc1ccc(CN(C(=O)Cc2ccc(Cl)cc2)C2CCN(C(C)C)CC2)cc1 [Example 47AKU-7, 2-(4-Chlorophenyl)-N-(4-methylbenzyl)-N-(1-isopropylpiperidin-4-yl)-acetamide]
Emax [4]: 120% | IC50 [5]: 7.94 nM

Cc1ccc(CN(C(=O)Cc2ccc(Cl)cc2)C2CCN(C)CC2)cc1 [Example 47AKU-8, 2-(4-Chlorophenyl)-N-(4-methylbenzyl)-N-(1-methylpiperidin-4-yl)-acetamide]
Emax [4]: 113% | IC50 [5]: 7.94 nM

CCN1CCC(N(Cc2ccc(C)cc2)C(=O)Cc2ccc(Cl)cc2)CC1 [Example 47AKU-12, 2-(4-Chlorophenyl)-N-(4-methylbenzyl)-N-(1-ethylpiperidin-4-yl)acetamide]
Emax [4]: 112% | IC50 [5]: 7.94 nM

COc1ccc(CC(=O)N(Cc2ccc(C)cc2)C2CCN(C3CCC3)CC2)cc1 [Example 47AKU-20, 2-(4-Methoxyphenyl)-N-(4-methylbenzyl)-N-(1-cyclobutylpiperidin-4-yl)acetamide]
Emax [4]: 120% | IC50 [5]: 10 nM

COc1ccc(CC(=O)N(Cc2ccc(C)cc2)C2CC3CCC(C2)N3C)cc1 (stereo not drawn) [Example 47AKU-21, 2-(4-Methoxyphenyl)-N-(4-methylbenzyl)-N-(8-methyl-8-aza-bicyclo[3.2.1]oct-3-yl)-acetamide]
Emax (read-out: Percent Efficacy): 117% | IC50 (pIC50, Table 3): 12.6 nM
